Data taken from PubChem BioAssay (NCI).
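Assay format: 96-well plates, 48-hour exposure. Abbreviation: GI50, concentration required for 50% inhibition of growth. TGI denotes the concentration required for complete inhibition of growth.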

Assays:
Experiment in all cases: NCI anticancer screen, dose series, 48 h
NCI-H460 lung = tested on: NCI-H460 lung
SW-620 colon = tested on: SW-620 colon
UO-31 renal = tested on: UO-31 renal
KM12 colon = tested on: KM12 colon
SK-MEL-28 melanoma = tested on: SK-MEL-28 melanoma
CAKI-1 renal = tested on: CAKI-1 renal
SN12C renal = tested on: SN12C renal
NCI-H226 lung = tested on: NCI-H226 lung
A549 NSCLC = tested on: A549 NSCLC
UACC-257 melanoma = tested on: UACC-257 melanoma
SNB-75 CNS = tested on: SNB-75 CNS
TK-10 renal = tested on: TK-10 renal
COLO 205 colon = tested on: COLO 205 colon
OVCAR-4 ovarian = tested on: OVCAR-4 ovarian
A498 renal = tested on: A498 renal
HCC-2998 colon = tested on: HCC-2998 colon
SK-MEL-5 melanoma = tested on: SK-MEL-5 melanoma
OVCAR-3 ovarian = tested on: OVCAR-3 ovarian
RPMI-8226 leukemia = tested on: RPMI-8226 leukemia
MOLT-4 leukemia = tested on: MOLT-4 leukemia
SK-MEL-2 melanoma = tested on: SK-MEL-2 melanoma
SNB-19 CNS = tested on: SNB-19 CNS
786-0 renal = tested on: 786-0 renal
HCT-15 colon = tested on: HCT-15 colon
OVCAR-8 ovarian = tested on: OVCAR-8 ovarian
NCI/ADR-RES ovarian = tested on: NCI/ADR-RES ovarian
IGROV1 ovarian = tested on: IGROV1 ovarian
MDA-MB-231 breast = tested on: MDA-MB-231 breast
MDA-MB-435 = tested on: MDA-MB-435
SK-OV-3 ovarian = tested on: SK-OV-3 ovarian
EKVX NSCLC = tested on: EKVX NSCLC
MCF7 breast = tested on: MCF7 breast
HL-60(TB) leukemia = tested on: HL-60(TB) leukemia
HS 578T breast = tested on: HS 578T breast
BT-549 breast = tested on: BT-549 breast
SR leukemia = tested on: SR leukemia
K-562 leukemia = tested on: K-562 leukemia
NCI-H522 lung = tested on: NCI-H522 lung
LOX IMVI melanoma = tested on: LOX IMVI melanoma
UACC-62 melanoma = tested on: UACC-62 melanoma
SF-295 CNS = tested on: SF-295 CNS
HOP-92 NSCLC = tested on: HOP-92 NSCLC
HOP-62 NSCLC = tested on: HOP-62 NSCLC
ACHN renal = tested on: ACHN renal
HT29 colon = tested on: HT29 colon
SF-539 CNS = tested on: SF-539 CNS
DU-145 prostate = tested on: DU-145 prostate
PC-3 prostate = tested on: PC-3 prostate
NCI-H23 lung = tested on: NCI-H23 lung
U251 CNS = tested on: U251 CNS
CCRF-CEM leukemia = tested on: CCRF-CEM leukemia
MALME-3M melanoma = tested on: MALME-3M melanoma
M14 melanoma = tested on: M14 melanoma
HCT-116 colon = tested on: HCT-116 colon
RXF 393 renal = tested on: RXF 393 renal
SF-268 CNS = tested on: SF-268 CNS
T-47D breast = tested on: T-47D breast
OVCAR-5 ovarian = tested on: OVCAR-5 ovarian

CSc1nc2c(c(=O)n1C)CN(C1CCCCC1)C(=O)C(c1ccccc1)N2 (stereo unspecified)
GI50 (NCI-H460 lung): 37.2 µM | TGI (NCI-H460 lung): > 100 µM | GI50 (SW-620 colon): 38.5 µM | TGI (SW-620 colon): > 100 µM | GI50 (UO-31 renal): 34.1 µM | TGI (UO-31 renal): > 100 µM | GI50 (KM12 colon): 27.6 µM | TGI (KM12 colon): > 100 µM | GI50 (SK-MEL-28 melanoma): 17.1 µM | TGI (SK-MEL-28 melanoma): 83.3 µM | GI50 (CAKI-1 renal): 26.9 µM | TGI (CAKI-1 renal): > 100 µM | GI50 (SN12C renal): 36 µM | TGI (SN12C renal): > 100 µM | GI50 (NCI-H226 lung): 77.3 µM | TGI (NCI-H226 lung): > 100 µM | GI50 (A549 NSCLC): 38.4 µM | TGI (A549 NSCLC): > 100 µM | GI50 (UACC-257 melanoma): 38.2 µM | TGI (UACC-257 melanoma): > 100 µM | GI50 (SNB-75 CNS): 95.8 µM | TGI (SNB-75 CNS): > 100 µM | GI50 (TK-10 renal): 31.4 µM | TGI (TK-10 renal): > 100 µM | GI50 (COLO 205 colon): 30.9 µM | TGI (COLO 205 colon): > 100 µM | GI50 (OVCAR-4 ovarian): 35.2 µM | TGI (OVCAR-4 ovarian): > 100 µM | GI50 (A498 renal): 0.292 µM | TGI (A498 renal): 37.6 µM | GI50 (HCC-2998 colon): 35.9 µM | TGI (HCC-2998 colon): > 100 µM | GI50 (SK-MEL-5 melanoma): 10.4 µM | TGI (SK-MEL-5 melanoma): 25.7 µM | GI50 (OVCAR-3 ovarian): 20.1 µM | TGI (OVCAR-3 ovarian): 82 µM | GI50 (RPMI-8226 leukemia): 11.3 µM | TGI (RPMI-8226 leukemia): > 100 µM | GI50 (MOLT-4 leukemia): 12.2 µM | TGI (MOLT-4 leukemia): 39 µM | GI50 (SK-MEL-2 melanoma): 26.2 µM | TGI (SK-MEL-2 melanoma): > 100 µM | GI50 (SNB-19 CNS): 36.7 µM | TGI (SNB-19 CNS): > 100 µM | GI50 (786-0 renal): 68.3 µM | TGI (786-0 renal): > 100 µM | GI50 (HCT-15 colon): 16.1 µM | TGI (HCT-15 colon): > 100 µM | GI50 (OVCAR-8 ovarian): 46.9 µM | TGI (OVCAR-8 ovarian): > 100 µM | GI50 (NCI/ADR-RES ovarian): 38.9 µM | TGI (NCI/ADR-RES ovarian): > 100 µM | GI50 (IGROV1 ovarian): 34.6 µM | TGI (IGROV1 ovarian): > 100 µM | GI50 (MDA-MB-231 breast): 27.4 µM | TGI (MDA-MB-231 breast): > 100 µM | GI50 (MDA-MB-435): 19.1 µM | TGI (MDA-MB-435): > 100 µM | GI50 (SK-OV-3 ovarian): 76.8 µM | TGI (SK-OV-3 ovarian): > 100 µM | GI50 (EKVX NSCLC): 38.8 µM | TGI (EKVX NSCLC): > 100 µM | GI50 (MCF7 breast): 19.3 µM | TGI (MCF7 breast): 66 µM | GI50 (HL-60(TB) leukemia): 17.5 µM | TGI (HL-60(TB) leukemia): 67.5 µM | GI50 (HS 578T breast): 15.9 µM | TGI (HS 578T breast): 80.7 µM | GI50 (BT-549 breast): 13.2 µM | TGI (BT-549 breast): 49.4 µM | GI50 (SR leukemia): 6.38 µM | TGI (SR leukemia): > 100 µM | GI50 (K-562 leukemia): 4 µM | TGI (K-562 leukemia): > 100 µM | GI50 (NCI-H522 lung): 11.9 µM | TGI (NCI-H522 lung): > 100 µM | GI50 (LOX IMVI melanoma): 17.1 µM | TGI (LOX IMVI melanoma): > 100 µM | GI50 (UACC-62 melanoma): 8.01 µM | TGI (UACC-62 melanoma): 57.8 µM | GI50 (SF-295 CNS): 35.3 µM | TGI (SF-295 CNS): > 100 µM | GI50 (HOP-92 NSCLC): 14.3 µM | TGI (HOP-92 NSCLC): 91.4 µM | GI50 (HOP-62 NSCLC): > 100 µM | TGI (HOP-62 NSCLC): > 100 µM | GI50 (ACHN renal): 12.1 µM | TGI (ACHN renal): > 100 µM | GI50 (HT29 colon): 33.3 µM | TGI (HT29 colon): > 100 µM | GI50 (SF-539 CNS): 51.7 µM | TGI (SF-539 CNS): > 100 µM | GI50 (DU-145 prostate): 64.4 µM | TGI (DU-145 prostate): > 100 µM | GI50 (PC-3 prostate): 21.7 µM | TGI (PC-3 prostate): > 100 µM | GI50 (NCI-H23 lung): 51.2 µM | TGI (NCI-H23 lung): > 100 µM | GI50 (U251 CNS): 41.4 µM | TGI (U251 CNS): > 100 µM | GI50 (CCRF-CEM leukemia): 11.3 µM | TGI (CCRF-CEM leukemia): > 100 µM | GI50 (MALME-3M melanoma): 10.9 µM | TGI (MALME-3M melanoma): 43.5 µM | GI50 (M14 melanoma): 43.5 µM | TGI (M14 melanoma): > 100 µM | GI50 (HCT-116 colon): 36.6 µM | TGI (HCT-116 colon): > 100 µM | GI50 (RXF 393 renal): 49.5 µM | TGI (RXF 393 renal): > 100 µM | GI50 (SF-268 CNS): 25.3 µM | TGI (SF-268 CNS): > 100 µM | GI50 (T-47D breast): 29.3 µM | TGI (T-47D breast): > 100 µM | GI50 (OVCAR-5 ovarian): > 100 µM | TGI (OVCAR-5 ovarian): > 100 µM
